{"source": "patent US12648565B2", "about": "“Post-emergence herbicide” (Belvedere Foliar LLC, priority 2017, dated 2026)", "key": {"[1]": {"tested_on": "broadleaf (dicotyledonous) species (Antirrhinum majus, Cineraria meritima)", "assay": "Trial 41: greenhouse foliar spray trial, dicots, visual toxicity scoring", "assay_type": "in vivo", "details": "solutions “B”, 2.0M; Plant 3 and 10; by test conclusion at Day 23", "source_text": "(§1) FIG. 5 depicts the average toxicity scores for the four plants tested in Trial 41, which tested an embodiment of an herbicide composition and method of using the same. The plants were numbered 22, 2, 3, and 10, corresponding to mixed monocotyledonous and dicotyledonous Pasture Blend 2 and Allium cepa (Onion “Torpedo Red”), and dicotyledonous Antirrhinum majus (Snapdragon) and Cineraria meritima (Dusty Miller, “Silver Dust” (Refer to Tables 4A and 4B for plant species identification). Both of the samples S-1 and S-2 were solutions of 2.0 Molar of ammonium sulfate having a pH of 5.5. (Refer to Tables 6A and 6B for trial solutions, details and results). Results of Trial 41: For broadleaf (dicotyledonous) species of Sample S-1 at 2.0 Molar concentration, excellent phytotoxic effects from 4.0 to 5.0 (“severe-to-fatal”) resulted from Day 3 through trial conclusion at Day 23. For monocotyledonous grass and liliaceae species of Sample S-2 at 2.0 Molar concentration, an initial moderate effect of 3.0 had decreased to 2.3 (“slight”). […] Dicots included in the Pasture 2 samples of S-1 and S-2 were all dead by Day 7. However, separate toxicity results for the monocots and dicots present in the Pasture Blend 2 mix were not recorded, and are not presented in FIG. 5.\n(§2) In Trial 41, the herbicide comprised Ammonium sulfate […]; molarity 2.0; unadjusted pH approx. 5.5. […]"}, "[2]": {"tested_on": "monocotyledonous grass and liliaceae species (Pasture Blend 2, Allium cepa)", "assay": "Trial 41: greenhouse foliar spray trial, monocots, visual toxicity scoring", "assay_type": "in vivo, grasses of pasture seed blend", "details": "2.0M; Plants P-2 and 2", "source_text": "as §1, §2"}, "weeds growing in soil": {"tested_on": "weeds growing in soil", "assay_type": "in vivo"}, "[3]": {"tested_on": "Pasture Blend 1, Calendula officinalis (Common marigold), Cineraria meritima (Dusty miller) (plants 21, 7, 10)", "assay": "Trial 13: greenhouse foliar spray trial, visual toxicity scoring", "assay_type": "in vivo", "details": "Day 11", "source_text": "(§3) The majority of greenhouse trials conducted to date have been of one basic design: • 1. Samples of different species of flowering plant and grass are exposed to different formulations of the herbicide in accordance with some embodiments, prepared in a range of concentrations, in combination with potentially suitable adjuvants, and applied as an aquatic spray. Experimental plants are purchased either from a local nursery, grown from ornamental and weed seed packs, or grown from seeds of a custom blend prepared specifically for this project and listed in Table 4B. The experimental variable in a typical test is the molar mass concentration of the nutrient salt being examined. Other factors including pH, nitrogen source, and the amount and composition of surfactant or penetrant are constants within a trial except when one of these factors is itself the variable of interest in the experiment. Experiments are controlled unless irrelevant for a particular test. • 2. […] Plants are sprayed with the experimental formulation, always in late afternoon (greenhouse tests), or in early morning (field tests), are observed over as many as several weeks, and their visible state of decline scored by the same examiner on a 9 points system relying on visual effects of toxicity. […]"}, "[4]": {"tested_on": "the three grasses in P-2 (Pasture Blend 2)", "assay": "Trial 46: greenhouse foliar spray trial, grasses, visual toxicity scoring", "assay_type": "in vivo, Lolium perenne, Dactylis glomerata, Festuca arundinacea", "details": "Day 8 through Day 18", "source_text": "(§4) FIG. 9 is a graph showing the average toxicity scores for the […] plants tested in Trial 46, which tested an embodiment of an herbicide composition and method of using the same. The plants were numbered P2, 5, 11A, and 13, corresponding to Pasture Blend 2, Brassica oleracea (Kale), Dichondra repens, Fragraia x ananassa Strawberry (Refer to Tables 4A and 4B for plant species identification). Solutions S-1 and S-2 correspond to solutions of Monopotassium phosphate (KH2PO4) at concentrations of 2.0 molarity (Solution 1) and 1.5 molarity (Solution 2). […] The adjuvants in Trial 46 were […] silicone surfactant and methylated seed oil (MSO).\n(§5) The majority of greenhouse trials conducted to date have been of one basic design: • 1. Samples of different species of flowering plant and grass are exposed to different formulations of the herbicide in accordance with some embodiments, prepared in a range of concentrations, in combination with potentially suitable adjuvants, and applied as an aquatic spray. […] Plants are sprayed with the experimental formulation, always in late afternoon (greenhouse tests), or in early morning (field tests), are observed over as many as several weeks, and their visible state of decline scored by the same examiner on a 9 points system relying on visual effects of toxicity. […]"}, "[5]": {"tested_on": "broadleaf (dicot) samples: Brassica oleracea (Kale), Dichondra repens, Fragraia x ananassa (Strawberry)", "assay": "Trial 46: greenhouse foliar spray trial, broadleaf (dicot) samples, visual toxicity scoring", "assay_type": "in vivo, Fragaria x ananassa", "source_text": "as §4, §5"}, "plants": {"tested_on": "plants", "assay": "Example 13: micronutrient salt composition applied to plants as in Example 1, toxicity scoring", "assay_type": "in vivo", "details": "after a period of 3-30 days", "procedure": "Toxicity scoring is performed as described in Table 7."}, "[6]": {"tested_on": "Pasture Blend 2, Allium cepa (Onion), Cineraria maritima (Dusty miller), Antirrhinum majus (Snapdragon)", "assay": "Trial 44: greenhouse foliar spray trial, visual toxicity scoring", "assay_type": "in vivo", "source_text": "The majority of greenhouse trials conducted to date have been of one basic design: • 1. Samples of different species of flowering plant and grass are exposed to different formulations of the herbicide in accordance with some embodiments, prepared in a range of concentrations, in combination with potentially suitable adjuvants, and applied as an aquatic spray. Experimental plants are purchased either from a local nursery, grown from ornamental and weed seed packs, or grown from seeds of a custom blend prepared specifically for this project and listed in Table 4B. The experimental variable in a typical test is the molar mass concentration of the nutrient salt being examined. Other factors including pH, nitrogen source, and the amount and composition of surfactant or penetrant are constants within a trial except when one of these factors is itself the variable of interest in the experiment. Experiments are controlled unless irrelevant for a particular test. • 2. Standard techniques to reduce experimental error are employed including use of controls; standard spray application pressures; standardized growing conditions, growing medium, containers, and source irrigation water; and preparation and shipping of samples for laboratory analysis according to required standard laboratory protocols. • 3. Plants are sprayed with the experimental formulation, always in late afternoon (greenhouse tests), or in early morning (field tests), are observed over as many as several weeks, and their visible state of decline scored by the same examiner on a 9 points system relying on visual effects of toxicity. (Table 5.)\nScores of half-value are also used: 0, 0.5, 1.0, 1.5, 2.0, 2.5, etc. • 4. The estimated successful herbicidal effectiveness of a formulation was determined from a combination of averaged and cumulative scores of 4.0 to 5.0 observed approximately 14 days or longer after application: “All leaves and flowers if present desiccated, browned, wilted, and stems or blades lodged; no green tissue visible; no regrowth from roots visible.”\nS-1 corresponds to the highest concentration of active nutrient tested, S-3 corresponds to the lowest concentration of nutrient tested and S-2 represents an intermediate level."}, "[7]": {"tested_on": "all broadleaf species in the trial", "assay": "Trial 64: greenhouse foliar spray trial, broadleaf species", "assay_type": "in vivo", "details": "0.5 molarity; Days 12 through 34", "source_text": "as §3"}, "[8]": {"tested_on": "the grass species in the trial", "assay": "Trial 64: greenhouse foliar spray trial, grass species", "assay_type": "in vivo, grasses of pasture seed blend", "details": "0.5 molarity; Days 12 through 34", "source_text": "as §3"}}, "note": "Where two headings read alike, the source gives them in different places."}
{"smiles": "N.N.O=S(=O)(O)O", "note": "[Ammonium sulfate]", "values": [{"measurement": "toxicity level (in words)", "setting": "[1]", "value": "severe-to-fatal"}, {"measurement": "responsiveness (in words)", "setting": "[2]", "value": "considerably less responsive"}, {"measurement": "herbicidal effects on the weed plants", "setting": "weeds growing in soil; aqueous solution with citric acid and a surfactant, sprayed", "value": "has herbicidal effects"}]}
{"smiles": "O=C([O-])CC(O)(CC(=O)[O-])C(=O)[O-].[K+].[K+].[K+]", "note": "[K-citrate, potassium citrate]", "values": [{"measurement": "average toxicity score", "setting": "[3]; 1.0M", "value": 4.0}, {"measurement": "average toxicity score", "setting": "[3]; […]", "value": 4.3}]}
{"smiles": "O=P([O-])(O)O.[K+]", "note": "[Mono-potassium phosphate]", "values": [{"measurement": "phytotoxic effect (in words)", "setting": "[4]; 1.5 molar test solution", "value": "minimal effect"}, {"measurement": "phytotoxic effect (in words)", "setting": "[4]; 2.0 molar test solution", "value": "minimal effect"}, {"measurement": "phytotoxic effect (in words)", "setting": "[5]; 1.0M solution (so in the source), Days 8 through 18", "value": "severe-to-fatal"}, {"measurement": "phytotoxic effect (in words)", "setting": "[5]; 2.0 molar test solution, Day 8 through Day 18, broadleaf samples (dicots)", "value": "Severe-to-fatal"}]}
{"smiles": "O.O=S(=O)([O-])[O-].[Zn+2]", "note": "[Zn sulfate monohydrate]", "values": [{"measurement": "plant death", "setting": "plants", "value": "plant death is observed"}]}
{"smiles": "O=S(=O)([O-])[O-].[Zn+2]", "note": "[ZnSO4, Zinc Sulfate]", "values": [{"measurement": "average toxicity score", "setting": "[6]; 1.0M, first of three values for “Days 521 through 32”", "value": 4.3}, {"measurement": "average toxicity score", "setting": "[6]; 1.0M, second of three values for “Days 521 through 32”", "value": 4.4}, {"measurement": "average toxicity score", "setting": "[6]; 1.0M, third of three values for “Days 521 through 32”", "value": 4.2}, {"measurement": "average toxicity score", "setting": "[6]; 1.0 molar solution, Day 21 through Day 32", "value": "approximately 4.5"}, {"measurement": "average toxicity score", "setting": "[6]; 2.0 molar solution, Day 9", "value": 3.9}]}
{"smiles": "O=[N+]([O-])[O-].O=[N+]([O-])[O-].[Ca+2]", "note": "[calcium nitrate]", "values": [{"measurement": "herbicidal effects on the weed plants", "setting": "weeds growing in soil; in vivo", "value": "has herbicidal effects"}]}
{"smiles": "O.O.O.O.O=BOB1OB(OB=O)OB2OB([O-])OB([O-])OB(O1)O2.[Na+].[Na+]", "note": "[disodium octaborate tetrahydrate]", "values": [{"measurement": "phytotoxic control (in words)", "setting": "[7]", "value": "Excellent phytotoxic control"}, {"measurement": "phytotoxic control (in words)", "setting": "[8]", "value": "Partial control"}]}
{"smiles": "O=[N+]([O-])[O-].O=[N+]([O-])[O-].[Mg+2]", "note": "[magnesium nitrate]", "values": [{"measurement": "herbicidal effects on the weed plants", "setting": "weeds growing in soil; in vivo", "value": "has herbicidal effects"}]}
